Data from US11524968B2, “Heterocyclic compound as a protein kinase inhibitor” (HK inno.N Corporation, priority 2017, dated 2022).

Molecular target: JAK1 (Homo sapiens (Human), UniProt P23458)
Assay: Analysis of JAK1 activity inhibition ability (ADP-Glo Kinase Assay)
Assay type: biochemical
Conditions: JAK1 enzyme, ADP-Glo luminescence, ATP 250 uM, IRS-itide substrate, 30° C. 40 minutes; read-out: IC50
Outline: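 JAK1 enzyme, IRS-itide substrate (40 ng/mL) and 250 uM ATP, both as prepared in kinase buffer (Tris-HCl pH 7.5, MgCl2, BSA, DTT), reacted with compound 40 min at 30 °C. ADP formed was detected by ADP-Glo luminescence; IC50 is the concentration giving 50% inhibition versus control.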

Sequence of JAK1 (P23458 whole entry): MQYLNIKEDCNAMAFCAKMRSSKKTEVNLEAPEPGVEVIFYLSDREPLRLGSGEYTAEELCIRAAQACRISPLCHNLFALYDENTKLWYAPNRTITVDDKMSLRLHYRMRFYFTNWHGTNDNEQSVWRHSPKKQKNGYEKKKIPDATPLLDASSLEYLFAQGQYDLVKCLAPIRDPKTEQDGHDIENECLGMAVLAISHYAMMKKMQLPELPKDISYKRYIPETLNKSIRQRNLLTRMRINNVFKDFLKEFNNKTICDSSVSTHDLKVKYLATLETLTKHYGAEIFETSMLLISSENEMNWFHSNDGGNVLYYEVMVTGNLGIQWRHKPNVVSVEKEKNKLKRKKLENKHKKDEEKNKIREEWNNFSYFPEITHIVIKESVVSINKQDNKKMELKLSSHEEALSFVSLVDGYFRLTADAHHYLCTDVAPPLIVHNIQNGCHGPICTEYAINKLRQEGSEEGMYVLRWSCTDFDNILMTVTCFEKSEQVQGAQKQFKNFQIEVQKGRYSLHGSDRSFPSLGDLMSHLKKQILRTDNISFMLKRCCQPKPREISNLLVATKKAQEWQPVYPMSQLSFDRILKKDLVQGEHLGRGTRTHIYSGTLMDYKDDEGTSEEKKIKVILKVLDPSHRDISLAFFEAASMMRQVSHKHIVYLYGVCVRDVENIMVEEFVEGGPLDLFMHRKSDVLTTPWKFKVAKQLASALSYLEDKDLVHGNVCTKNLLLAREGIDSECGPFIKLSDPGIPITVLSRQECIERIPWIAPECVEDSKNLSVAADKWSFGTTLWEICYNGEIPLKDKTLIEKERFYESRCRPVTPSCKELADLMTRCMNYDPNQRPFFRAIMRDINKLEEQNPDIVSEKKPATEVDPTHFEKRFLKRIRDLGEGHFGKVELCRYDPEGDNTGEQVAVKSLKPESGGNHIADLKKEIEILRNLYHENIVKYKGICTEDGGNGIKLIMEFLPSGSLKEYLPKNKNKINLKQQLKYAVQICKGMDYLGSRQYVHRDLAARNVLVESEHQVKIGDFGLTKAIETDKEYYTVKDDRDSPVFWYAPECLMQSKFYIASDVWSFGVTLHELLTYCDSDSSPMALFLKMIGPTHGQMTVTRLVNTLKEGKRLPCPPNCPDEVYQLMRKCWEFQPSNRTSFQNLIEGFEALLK

`CCCS(=O)(=O)N[C@H]1CCN(c2nc(NC(=O)C3CC3)nc3[nH]ccc23)C1` [Example 670, (S)—N-(4-(3-(propylsulfonamido)pyrrolidin-1-yl)-7H-pyrrolo[2,3-d]pyrimidin-2-yl)cyclopropanecarboxamide] and `C=CCS(=O)(=O)N[C@H]1CCN(c2nc(NC(=O)C3CC3)nc3[nH]ccc23)C1` [Example 671, (S)—N-(4-(3-(allylsulfonamido)pyrrolidin-1-yl)-7H-pyrrolo[2,3-d]pyrimidin-2-yl)cyclopropanecarboxamide] cannot be ordered by IC50: > 200 nM for the first, > 200 nM for the second.

`CCS(=O)(=O)N(C)[C@H]1CCN(c2cc(NC(=O)C3CC3)nc3[nH]ccc23)C1` [Example 672, (S)—N-(4-(3-(N-methylethylsulfonamido)pyrrolidin-1-yl)-1H-pyrrolo[2,3-b]pyridin-6-yl)cyclopropanecarboxamide] and `CN(C)S(=O)(=O)N1CCN(c2cc(NC(=O)C3CC3)nc3[nH]ccc23)CC1` [Example 674, N-(4-(4-(N,N-dimethylsulfamoyl)piperazin-1-yl)-1H-pyrrolo[2,3-b]pyridin-6-yl)cyclopropanecarboxamide] cannot be ordered by IC50: > 200 nM for the first, > 200 nM for the second.

`O=C(Nc1cc(N2CCN(S(=O)(=O)N3CCOCC3)CC2)c2cc[nH]c2n1)C1CC1` [Example 673, N-(4-(4-(morpholinosulfonyl)piperazin-1-yl)-1H-pyrrolo[2,3-b]pyridin-6-yl)cyclopropanecarboxamide] and `CCS(=O)(=O)N1CC(CC#N)(N2CCN(c3cc(NC(=O)C4CC4)nc4[nH]ccc34)CC2)C1` [Example 700, N-(4-(4-(3-(cyanomethyl)-1-(ethylsulfonyl)azetidin-3-yl)piperazin-1-yl)-1H-pyrrolo[2,3-b]pyridin-6-yl)cyclopropanecarboxamide] cannot be ordered by IC50: > 200 nM for the first, > 200 nM for the second.

`N#CCC(=O)NC1CCN(c2cc(NC(=O)C3CC3)nc3[nH]ccc23)CC1` [Example 675, N-(4-(4-(2-cyanoacetamido)piperidin-1-yl)-1H-pyrrolo[2,3-b]pyridin-6-yl)cyclopropanecarboxamide] and `N#CCC(=O)N1CCN(c2cc(NC(=O)C3CC3)nc3[nH]ccc23)CC1` [Example 676, N-(4-(4-(2-cyanoacetyl)piperazin-1-yl)-1H-pyrrolo[2,3-b]pyridin-6-yl)cyclopropanecarboxamide] cannot be ordered by IC50: > 200 nM for the first, > 200 nM for the second.

First: N#CCC(=O)N1C2CCC1CN(c1cc(NC(=O)C3CC3)nc3[nH]ccc13)C2 [Example 677, N-(4-(8-(2-cyanoacetyl)-3,8-diazabicyclo[3.2.1]octan-3-yl)-1H-pyrrolo[2,3-b]pyridin-6-yl)cyclopropanecarboxamide]
Second: N#CCC(=O)N1C2CC1CN(c1cc(NC(=O)C3CC3)nc3[nH]ccc13)C2 [Example 685, N-(4-(6-(2-cyanoacetyl)-3,6-diazabicyclo[3.1.1]heptan-3-yl)-1H-pyrrolo[2,3-b]pyridin-6-yl)cyclopropanecarboxamide]
The IC50 of the first is lower: < 20 nM for the first, > 200 nM for the second. The first is the more potent here.

Compared with `N#CCC(=O)N1CC2CCC(C1)N2c1cc(NC(=O)C2CC2)nc2[nH]ccc12` [Example 678, N-(4-(3-(2-cyanoacetyl)-3,8-diazabicyclo[3.2.1]octan-8-yl)-1H-pyrrolo[2,3-b]pyridin-6-yl)cyclopropanecarboxamide], `CC(C)(C)OC(=O)N1CC2CCC(C1)N2c1cc(NC(=O)C2CC2)nc2[nH]ccc12` [Example 694, tert-butyl 8-(6-(cyclopropanecarboxamido)-1H-pyrrolo[2,3-b]pyridin-4-yl)-3,8-diazabicyclo[3.2.1]octane-3-carboxylate] is higher in IC50: 20 to 200 nM for the first, > 200 nM for the second.

`N#CCC(=O)N1C[C@@H]2C[C@H]1CN2c1cc(NC(=O)C2CC2)nc2[nH]ccc12` [Example 679, N-(4-((1S,4S)-5-(2-cyanoacetyl)-2,5-diazabicyclo[2.2.1]heptan-2-yl)-1H-pyrrolo[2,3-b]pyridin-6-yl)cyclopropanecarboxamide] and `N#CCC(=O)N1C[C@H]2C[C@@H]1CN2c1cc(NC(=O)C2CC2)nc2[nH]ccc12` [Example 681, N-(4-((1R,4R)-5-(2-cyanoacetyl)-2,5-diazabicyclo[2.2.1]heptan-2-yl)-1H-pyrrolo[2,3-b]pyridin-6-yl)cyclopropanecarboxamide] cannot be ordered by IC50: > 200 nM for the first, > 200 nM for the second.

`N#CCCC(=O)N1C[C@@H]2C[C@H]1CN2c1cc(NC(=O)C2CC2)nc2[nH]ccc12` [Example 680, N-(4-((1S,4S)-5-(3-cyanopropanoyl)-2,5-diazabicyclo[2.2.1]heptan-2-yl)-1H-pyrrolo[2,3-b]pyridin-6-yl)cyclopropanecarboxamide] and `N#CCCC(=O)N1C[C@H]2C[C@@H]1CN2c1cc(NC(=O)C2CC2)nc2[nH]ccc12` [Example 682, N-(4-((1R,4R)-5-(3-cyanopropanoyl)-2,5-diazabicyclo[2.2.1]heptan-2-yl)-1H-pyrrolo[2,3-b]pyridin-6-yl)cyclopropanecarboxamide] cannot be ordered by IC50: > 200 nM for the first, > 200 nM for the second.

Compared with `N#CC1(CC(=O)N2CCN(c3cc(NC(=O)C4CC4)nc4[nH]ccc34)CC2)CC1` [Example 683, N-(4-(4-(2-(1-cyanocyclopropyl)acetyl)piperazin-1-yl)-1H-pyrrolo[2,3-b]pyridin-6-yl)cyclopropanecarboxamide], `N#CCCC(=O)N1CCN(c2cc(NC(=O)C3CC3)nc3[nH]ccc23)CC1` [Example 684, N-(4-(4-(3-cyanopropanoyl)piperazin-1-yl)-1H-pyrrolo[2,3-b]pyridin-6-yl)cyclopropanecarboxamide] is higher in IC50: 20 to 200 nM for the first, > 200 nM for the second.

First: N#Cc1cccc(C(=O)N2C3CCC2CN(c2cc(NC(=O)C4CC4)nc4[nH]ccc24)C3)c1 [Example 686, N-(4-(8-(3-cyanobenzoyl)-3,8-diazabicyclo[3.2.1]octan-3-yl)-1H-pyrrolo[2,3-b]pyridin-6-yl)cyclopropanecarboxamide]
Second: CC(C)(C)OC(=O)N1C2CCC1CN(c1cc(NC(=O)C3CC3)nc3[nH]ccc13)C2 [Example 693, tert-butyl 3-(6-(cyclopropanecarboxamido)-1H-pyrrolo[2,3-b]pyridin-4-yl)-3,8-diazabicyclo[3.2.1]octane-8-carboxylate]
The IC50 of the first is lower: < 20 nM for the first, 20 to 200 nM for the second.

Compared with `N#CCC(=O)N1CCN(c2nc(NC(=O)C3CC3)nc3[nH]ccc23)CC1` [Example 687, N-(4-(4-(2-cyanoacetyl)piperazin-1-yl)-7H-pyrrolo[2,3-d]pyrimidin-2-yl)cyclopropanecarboxamide], `N#CCC(=O)N1C2CCC1CN(c1nc(NC(=O)C3CC3)nc3[nH]ccc13)C2` [Example 688, (N-(4-(8-(2-cyanoacetyl)-3,8-diazabicyclo[3.2.1]octan-3-yl)-7H-pyrrolo[2,3-d]pyrimidin-2-yl)cyclopropanecarboxamide)] is lower in IC50: > 200 nM for the first, 20 to 200 nM for the second. The second is the more potent here.

`N#CC1(CC(=O)N2C3CCC2CN(c2nc(NC(=O)C4CC4)nc4[nH]ccc24)C3)CC1` [Example 689, N-(4-(8-(2-(1-cyanocyclopropyl)acetyl)-3,8-diazabicyclo[3.2.1]octan-3-yl)-7H-pyrrolo[2,3-d]pyrimidin-2-yl)cyclopropanecarboxamide] and `CC(C)(C)OC(=O)N1C2CCC1CN(c1nc(NC(=O)C3CC3)nc3[nH]ccc13)C2` [Example 695, tert-butyl 3-(2-(cyclopropanecarboxamido)-7H-pyrrolo[2,3-d]pyrimidin-4-yl)-3,8-diazabicyclo[3.2.1]octane-8-carboxylate] fall in the same range of IC50: 20 to 200 nM for the first, 20 to 200 nM for the second.

Compared with `O=C(Nc1cc(N2CCN(C(=O)NCC(F)(F)F)CC2)c2cc[nH]c2n1)C1CC1` [Example 690, 4-(6-(cyclopropanecarboxamido)-1H-pyrrolo[2,3-b]pyridin-4-yl)-N-(2,2,2-trifluoroethyl)piperazine-1-carboxamide], `O=C(Nc1cc(N2CC3CCC(C2)N3C(=O)NCC(F)(F)F)c2cc[nH]c2n1)C1CC1` [Example 691, 3-(6-(cyclopropanecarboxamido)-1H-pyrrolo[2,3-b]pyridin-4-yl)-N-(2,2,2-trifluoroethyl)-3,8-diazabicyclo[3.2.1]octane-8-carboxamide] is lower in IC50: > 200 nM for the first, < 20 nM for the second. The second is the more potent here.

`CC(C)(C)OC(=O)N1CCN(c2cc(NC(=O)C3CC3)nc3[nH]ccc23)CC1` [Example 692, tert-butyl 4-(6-(cyclopropanecarboxamido)-1H-pyrrolo[2,3-b]pyridine-4-yl)piperazin-1-carboxylate] and `CC(C)(C)OC(=O)N[C@H]1CCN(c2cc(NC(=O)C3CC3)nc3[nH]ccc23)C1` [Example 697, tert-butyl (S)-(1-(6-(cyclopropanecarboxamido)-1H-pyrrolo[2,3-b]pyridin-4-yl)pyrrolidin-3-yl)carbamate] cannot be ordered by IC50: > 200 nM for the first, > 200 nM for the second.

First: CC(C)(C)OC(=O)N[C@H]1CCN(c2nc(NC(=O)C3CC3)nc3[nH]ccc23)C1 [Example 696, tert-butyl (S)-(1-(2-(cyclopropanecarboxamido)-7H-pyrrolo[2,3-d]pyrimidin-4-yl)pyrrolidin-3-yl)carbamate]
Second: O=C(Nc1cc(N2CCN(C[C@@H]3CC3(F)F)CC2)c2cc[nH]c2n1)C1CC1 [Example 699, (S)—N-(4-(4-((2,2-difluorocyclopropyl)methyl)piperazin-1-yl)-1H-pyrrolo[2,3-b]pyridin-6-yl)cyclopropanecarboxamide]
The IC50 of the first is higher: > 200 nM for the first, 20 to 200 nM for the second. The second is the more potent here.

First: O=C(Nc1cc(N2CCN(Cc3ccns3)CC2)c2cc[nH]c2n1)C1CC1 [Example 698, N-(4-(4-(isothiazol-5-ylmethyl)piperazin-1-yl)-1H-pyrrolo[2,3-b]pyridin-6-yl)cyclopropanecarboxamide]
Second: O=C(Nc1cc(N2CCN(CC(=O)N3CCS(=O)(=O)CC3)CC2)c2cc[nH]c2n1)C1CC1 [Example 702, N-(4-(4-(2-(1,1-dioxidothiomorpholino)-2-oxoethyl)piperazin-1-yl)-1H-pyrrolo[2,3-b]pyridin-6-yl)cyclopropanecarboxamide]
The IC50 of the first is lower: 20 to 200 nM for the first, > 200 nM for the second. The first is the more potent here.

In the case of `CCS(=O)(=O)N1CC(CC#N)(N2C3CCC2CN(c2cc(NC(=O)C4CC4)nc4[nH]ccc24)C3)C1` [Example 701, N-(4-(8-(3-(cyanomethyl)-1-(ethylsulfonyl)azetidin-3-yl)-3,8-diazabicyclo[3.2.1]octan-3-yl)-1H-pyrrolo[2,3-b]pyridin-6-yl)cyclopropanecarboxamide], the IC50 is reported as > 200 nM.
